The text below walks through data of patent US20130123494A1, “COMPLEX COMPOUND AND OPTICAL RECORDING MEDIUM CONTAINING SAME” (KH NEOCHEM CO., LTD., priority 2010, published 2013).

Common to all, as to assay type: physicochemical
The nature of series [1]: Lightfastness test of thin films. Conditions: thin film on glass plate, UV fluorescent lamps 15 W/m^2, 45° C., 10 hours. From the text:
Thin films of Complex Compounds (2) to (5), (7), (9) to (11), (13) to (21), (24), (26), (28), (30), (31), and (33) were respectively obtained similarly to the film-forming test except that a glass plate (manufactured by Taiyu Kizai Co., Ltd.; 2 cm×2 cm; thickness: 2 mm) was used as the substrates instead of the plate made of polycarbonate resin. Using a dewpanel light control weather meter DPWL-5R, manufactured by Suga Test Instruments Co., Ltd., which was equipped with ultraviolet fluorescent lamps (SUGA-FS40, manufactured by Suga Test Instruments Co., Ltd., having a peak wavelength of 313 nm and an illuminance distribution of 282 nm to 373 nm), light was irradiated on the thin films with an amount of light of 15 W/m^2 at 45° C. for 10 hours. Ultraviolet-visible absorption spectra of the thin film before and after the lightfastness test were measured using a spectrophotometer.
Here, the absorption maximum wavelength after lightfastness test denotes an absorption maximum wavelength in the absorption spectrum after the lightfastness test.

Series [2] is described as follows: Moisture- and heat-resistances test of thin films. Conditions: thin film, 80° C., relative humidity 80%, 100 hours. As for the experimental part: Similarly to the film-forming test, thin films of Complex Compounds (2) to (5), (7), (9) to (11), (13) to (21), (24), (26), (28), (30), (31), and (33) were respectively obtained. Using a constant temperature and humidity chamber, KHWII-40HP, manufactured by Satake Chemical Equipment Mfg Ltd., the thin films were exposed in the atmosphere having a temperature of 80° C. and a relative humidity of 80% for 100 hours. Ultraviolet-visible absorption spectra of the thin films before and after the moisture- and heat-resistances test were measured using a spectrophotometer. […] Here, the absorption maximum wavelength after the moisture- and heat-resistances test denotes the absorption maximum wavelength in an absorption spectrum after the moisture- and heat-resistances test.

Series [3] is described as follows: Test of storage stability in solution. Conditions: 13 mg in 1 mL TFP, brown bottle, 25° C., 3 days; 1250-fold diluted for measurement. How it is done:
Each of 13 mg of Complex Compounds (2) to (5), (7), (9) to (11), (13) to (21), (24), (26), (28), (30), (31), and (33) was dissolved in 1 mL of TFP, which was filtered with a filter made of TEFLON (registered trademark) (manufactured by Whatman, having a pore diameter of 0.20 μm), and solutions of Complex Compounds (2) to (5), (7), (9) to (11), (13) to (21), (24), (26), (28), (30), (31), and (33) were respectively obtained. Each of the obtained solutions was transferred to a brown bottle with a lid and stored at 25° C. for 3 days. Before and after the storage stability test, using a spectrophotometer, 1250-fold diluted solutions of Complex Compounds (2) to (5), (7), (9) to (11), (13) to (21), (24), (26), (28), (30), (31), and (33), respectively, were measured for their ultraviolet-visible absorption spectra. […] Here, the absorption maximum wavelength after the storage stability test is the absorption maximum wavelength in the absorption spectrum after the storage stability test.

Turning to `Cc1c(/C=N/[N-]c2nnnn2-c2ccccc2)c([O-])n(Cc2ccccc2)c(=O)c1C#N.Cc1c(/C=N/[N-]c2nnnn2-c2ccccc2)c([O-])n(Cc2ccccc2)c(=O)c1C#N.Cc1c(/C=N/[N-]c2nnnn2-c2ccccc2)c([O-])n(Cc2ccccc2)c(=O)c1C#N.Cc1c(/C=N/[N-]c2nnnn2-c2ccccc2)c([O-])n(Cc2ccccc2)c(=O)c1C#N.[Co+3].[Co+3].c1cc[n+]2c(c1)-c1cccc[n+]1CCC2` [Complex Compound (30)], the “I^a/I^a0 (absorbance ratio at absorption maximum after/before lightfastness test)” value in series [1] was 0.89. For the same molecule, in series [2], the “I^b/I^b0 (absorbance ratio at absorption maximum after/before moisture- and heat-resistances test)” value amounted to 0.99; the “Δλmax(b) (change in absorption maximum wavelength)” value is reported as 0 nm. In series [3], the “I^c/I^c0 (absorbance ratio at absorption maximum after/before storage stability test)” value is given as 0.99 and the “Δλmax(c) (change in absorption maximum wavelength)” value came to 0 nm.
For `CCn1c([O-])c(/C=N/[N-]c2ncccn2)c(C)c(C#N)c1=O.CCn1c([O-])c(/C=N/[N-]c2ncccn2)c(C)c(C#N)c1=O.CCn1c([O-])c(/C=N/[N-]c2ncccn2)c(C)c(C#N)c1=O.CCn1c([O-])c(/C=N/[N-]c2ncccn2)c(C)c(C#N)c1=O.Oc1ccc(-c2ccccc2)cc1-[n+]1ccc(-c2cc[n+](-c3cc(-c4ccccc4)ccc3O)cc2)cc1.[Co+3].[Co+3]` [Complex Compound (7)], in series [1], the “I^a/I^a0 (absorbance ratio at absorption maximum after/before lightfastness test)” value worked out at 0.99. Besides, in series [2], the “I^b/I^b0 (absorbance ratio at absorption maximum after/before moisture- and heat-resistances test)” value stood at 1.00; the “Δλmax(b) (change in absorption maximum wavelength)” value is 0 nm. In series [3], the “I^c/I^c0 (absorbance ratio at absorption maximum after/before storage stability test)” value amounted to 1.00 and the “Δλmax(c) (change in absorption maximum wavelength)” value was 0 nm.
Consider `Cc1ccc(-n2c([O-])c(/C=N/[N-]c3nnnn3-c3ccccc3)c(C)c(C#N)c2=O)cc1.Cc1ccc(-n2c([O-])c(/C=N/[N-]c3nnnn3-c3ccccc3)c(C)c(C#N)c2=O)cc1.Cc1ccc(-n2c([O-])c(/C=N/[N-]c3nnnn3-c3ccccc3)c(C)c(C#N)c2=O)cc1.Cc1ccc(-n2c([O-])c(/C=N/[N-]c3nnnn3-c3ccccc3)c(C)c(C#N)c2=O)cc1.[Co+3].[Co+3].c1cc[n+]2c(c1)-c1cccc[n+]1CCC2` [Complex Compound (26)], for which, in series [1], the “I^a/I^a0 (absorbance ratio at absorption maximum after/before lightfastness test)” value is given as 0.88. Also, in series [2], the “I^b/I^b0 (absorbance ratio at absorption maximum after/before moisture- and heat-resistances test)” value stood at 1.00; the “Δλmax(b) (change in absorption maximum wavelength)” value turned out to be 0 nm. For the same molecule, in series [3], the “I^c/I^c0 (absorbance ratio at absorption maximum after/before storage stability test)” value was found to be 1.01 and the “Δλmax(c) (change in absorption maximum wavelength)” value is listed as 0 nm.
With `Cc1c(/C=N/[N-]c2nnnn2-c2ccccc2)c([O-])n(CC(C)C)c(=O)c1C#N.Cc1c(/C=N/[N-]c2nnnn2-c2ccccc2)c([O-])n(CC(C)C)c(=O)c1C#N.Cc1c(/C=N/[N-]c2nnnn2-c2ccccc2)c([O-])n(CC(C)C)c(=O)c1C#N.Cc1c(/C=N/[N-]c2nnnn2-c2ccccc2)c([O-])n(CC(C)C)c(=O)c1C#N.[Co+3].[Co+3].c1ccc2c(c1)ccc[n+]2CCCC[n+]1cccc2ccccc21` [Complex Compound (21)], the “I^a/I^a0 (absorbance ratio at absorption maximum after/before lightfastness test)” value in series [1] stood at 0.87. In series [2], the “I^b/I^b0 (absorbance ratio at absorption maximum after/before moisture- and heat-resistances test)” value worked out at 1.00; the “Δλmax(b) (change in absorption maximum wavelength)” value turned out to be 0.5 nm. For the same molecule, in series [3], the “I^c/I^c0 (absorbance ratio at absorption maximum after/before storage stability test)” value is 1.01 and the “Δλmax(c) (change in absorption maximum wavelength)” value was determined as 0.5 nm.
For the molecule `Cc1c(/C=N/[N-]c2nc3ccccc3o2)c([O-])n(Cc2ccccc2)c(=O)c1C#N.Cc1c(/C=N/[N-]c2nc3ccccc3o2)c([O-])n(Cc2ccccc2)c(=O)c1C#N.Cc1c(/C=N/[N-]c2nc3ccccc3o2)c([O-])n(Cc2ccccc2)c(=O)c1C#N.Cc1c(/C=N/[N-]c2nc3ccccc3o2)c([O-])n(Cc2ccccc2)c(=O)c1C#N.[Co+3].[Co+3].c1cc[n+]2c(c1)-c1cccc[n+]1CCC2` [Complex Compound (33)], the “I^a/I^a0 (absorbance ratio at absorption maximum after/before lightfastness test)” value in series [1] amounted to 0.91. In series [2], the “I^b/I^b0 (absorbance ratio at absorption maximum after/before moisture- and heat-resistances test)” value amounted to 1.00; the “Δλmax(b) (change in absorption maximum wavelength)” value worked out at 0 nm. Further, in series [3], the “I^c/I^c0 (absorbance ratio at absorption maximum after/before storage stability test)” value was found to be 1.01 and the “Δλmax(c) (change in absorption maximum wavelength)” value was 0 nm.
As for `CCn1c([O-])c(/C=N/[N-]C(=O)c2ccc(C(F)(F)F)cc2)c(C)c(C#N)c1=O.CCn1c([O-])c(/C=N/[N-]C(=O)c2ccc(C(F)(F)F)cc2)c(C)c(C#N)c1=O.CCn1c([O-])c(/C=N/[N-]C(=O)c2ccc(C(F)(F)F)cc2)c(C)c(C#N)c1=O.CCn1c([O-])c(/C=N/[N-]C(=O)c2ccc(C(F)(F)F)cc2)c(C)c(C#N)c1=O.Oc1ccc(-c2ccccc2)cc1-[n+]1ccc(-c2cc[n+](-c3cc(-c4ccccc4)ccc3O)cc2)cc1.[Co+3].[Co+3]` [Complex Compound (9)], the “I^a/I^a0 (absorbance ratio at absorption maximum after/before lightfastness test)” value in series [1] worked out at 0.97. Moreover, in series [2], the “I^b/I^b0 (absorbance ratio at absorption maximum after/before moisture- and heat-resistances test)” value is listed as 1.00; the “Δλmax(b) (change in absorption maximum wavelength)” value is reported as 0 nm. Moreover, in series [3], the “I^c/I^c0 (absorbance ratio at absorption maximum after/before storage stability test)” value amounted to 1.00 and the “Δλmax(c) (change in absorption maximum wavelength)” value came to 0 nm.
Consider `Cc1c(/C=N/[N-]c2nnnn2-c2ccccc2)c([O-])n(CC(C)C)c(=O)c1C#N.Cc1c(/C=N/[N-]c2nnnn2-c2ccccc2)c([O-])n(CC(C)C)c(=O)c1C#N.Cc1c(/C=N/[N-]c2nnnn2-c2ccccc2)c([O-])n(CC(C)C)c(=O)c1C#N.Cc1c(/C=N/[N-]c2nnnn2-c2ccccc2)c([O-])n(CC(C)C)c(=O)c1C#N.[Co+3].[Co+3].c1cc[n+]2c(c1)-c1cccc[n+]1CCC2` [Complex Compound (14)], for which the “I^a/I^a0 (absorbance ratio at absorption maximum after/before lightfastness test)” value in series [1] is reported as 0.92. Besides, in series [2], the “I^b/I^b0 (absorbance ratio at absorption maximum after/before moisture- and heat-resistances test)” value is listed as 1.00; the “Δλmax(b) (change in absorption maximum wavelength)” value came to 0 nm. Also, in series [3], the “I^c/I^c0 (absorbance ratio at absorption maximum after/before storage stability test)” value was found to be 1.01 and the “Δλmax(c) (change in absorption maximum wavelength)” value is on record as 0 nm.
`Cc1c(/C=N/[N-]c2nnnn2-c2ccccc2)c([O-])n(Cc2ccccc2)c(=O)c1C#N.Cc1c(/C=N/[N-]c2nnnn2-c2ccccc2)c([O-])n(Cc2ccccc2)c(=O)c1C#N.Cc1c(/C=N/[N-]c2nnnn2-c2ccccc2)c([O-])n(Cc2ccccc2)c(=O)c1C#N.Cc1c(/C=N/[N-]c2nnnn2-c2ccccc2)c([O-])n(Cc2ccccc2)c(=O)c1C#N.[Co+3].[Co+3].c1ccc(CC[N+]23CC[N+](CCc4ccccc4)(CC2)CC3)cc1` [Complex Compound (31)]: in series [1], the “I^a/I^a0 (absorbance ratio at absorption maximum after/before lightfastness test)” value was 0.85. In addition, in series [2], the “I^b/I^b0 (absorbance ratio at absorption maximum after/before moisture- and heat-resistances test)” value came out at 1.00; the “Δλmax(b) (change in absorption maximum wavelength)” value amounted to 0 nm. Besides, in series [3], the “I^c/I^c0 (absorbance ratio at absorption maximum after/before storage stability test)” value was 1.02 and the “Δλmax(c) (change in absorption maximum wavelength)” value was 0 nm.
With `Cc1c(/C=N/[N-]c2nnnn2-c2ccccc2)c([O-])n(CC(C)C)c(=O)c1C#N.Cc1c(/C=N/[N-]c2nnnn2-c2ccccc2)c([O-])n(CC(C)C)c(=O)c1C#N.[Co+3].c1ccc(-c2nn(-c3ccccc3)[n+](-c3ccccc3)n2)cc1` [Complex Compound (15)], in series [1], the “I^a/I^a0 (absorbance ratio at absorption maximum after/before lightfastness test)” value turned out to be 0.88. Further, in series [2], the “I^b/I^b0 (absorbance ratio at absorption maximum after/before moisture- and heat-resistances test)” value was 1.00; the “Δλmax(b) (change in absorption maximum wavelength)” value stood at 0 nm. Further, in series [3], the “I^c/I^c0 (absorbance ratio at absorption maximum after/before storage stability test)” value is given as 1.01 and the “Δλmax(c) (change in absorption maximum wavelength)” value is 0 nm.
